The results in this text go back to US7601735B2, “Antiviral compounds” (priority 2001, dated 2009).

“And” between values parts separate entries of the source, which are not always exact repeats. Equal entries are not always repeated. Where two headings read alike, the source gives them in different places.

Data set [1] has as its system MDBK cells. The data set is described as follows: Cytotoxicity in plaque reduction assay, microscopic examination of the cell monolayers. In kind it is cell-based, bovine. The method, then: (§1) MDBK cells were seeded into 6-well cell culture plates (Nunclon™, Nunc, Denmark) and allowed to grow to confluency. The cells are washed twice in warm phosphate buffered saline (PBS) and then infected with BVDV NADL (150 pfu/well) in 0.25 ml PBS containing 1% horse serum and 1 mM MgCl2. The cell culture plates were then incubated at 37° C. for one hour with 5% CO2 and the plates rocked every 15-20 minutes. The virus inoculum was then removed and replaced with 3.0 ml of 0.5% low-gelling temperature agarose overlay diluted in DMEM supplemented with 5% horse serum, 2 mM L-glutamine, 50 U/ml penicillin and 50 Lg/ml streptomycin and containing different concentrations of test compound or no compound. At least duplicate or triplicate wells were used for each concentration of test compound. The agarose was allowed to solidify at room temperature for 15 minutes and then incubated at 37° C. with 5% CO2. After 3 days incubation the cells were fixed by adding 1.5 ml of a […] solution over the agar overlay and leaving overnight. The agar was gently removed from the wells and the cells stained with 0.3% methylene blue in PBS for 10 minutes at room temperature. The excess stain was removed and the cells washed with PBS prior to drying of the plates and counting of the viral plaques microscopically. Dose response lines were plotted from the mean number of plaques present versus the log of the concentration of the compound. The 50% Inhibitory concentration (IC50) was computed after linear regression analysis.
(§2) There was no sign of cytotoxicity at concentrations up to 1000 μM as judged by microscopic examination of the cell monolayers.

The test system of data set [2] is BVDV NADL. The data set is described as follows: Plaque reduction assay in MDBK cells. Type of data set: cell-based, bovine viral diarrhoea virus. The note with it: for IC50 / inhibition of formation of BVDV plaques: MDBK cells; for concentrations at which only partial inhibition was shown: parallel plaque reduction experiments; for inhibition of formation of BVDV plaques: FIG. 1. The method, then: MDBK cells (NBL-1) (ATCC CCL22) derived from bovine kidney and cytopathic (cp) BVDV (strain NADL) (ATCC VR-534) were available from the American Type Culture Collection (ATCC).
as §1

In data set [3] the test system is BVDV NADL. The data set is described as follows: XTT cytopathicity assay, infected cells. In kind it is cell-based, bovine viral diarrhoea virus. To be noted: for protection of MDBK cells against virus-induced cell death (cytopathic effect of BVDV): FIG. 2. On the procedure: The cells were washed twice in warm phosphate buffered saline (PBS) and then infected with BVDV NADL (100 pfu/well) in 100 μl of DMEM supplemented with 5% horse serum, 2 mM L-glutamine, 50 U/ml penicillin and 50 μg/ml streptomycin. Some wells were mock infected to act as controls. A further 100 μl of DMEM supplemented as above, but containing different concentrations of test compound or no compound was then added to each well. Triplicate wells were used for each compound concentration. In parallel, uninfected cells were treated with compound to assess cytotoxicity. The plates were then incubated at 37° C. with 5% CO2. […] The absorbance was then determined at 450 nm.

The test system of data set [4] is MDBK cells. The data set is described as follows: XTT cytopathicity assay, uninfected cells (cytotoxicity). In kind it is cell-based, bovine. To be noted: for CC50: uninfected MDBK cells, 6 days. On the procedure:
(§3) MDBK cells were seeded into 96-well cell culture plates (Costar® 3596, Corning Incorp., USA) and allowed to grow to confluency. The cells were washed twice in warm phosphate buffered saline (PBS) and then infected with BVDV NADL (100 pfu/well) in 100 μl of DMEM supplemented with 5% horse serum, 2 mM L-glutamine, 50 U/ml penicillin and 50 μg/ml streptomycin. Some wells were mock infected to act as controls. A further 100 μl of DMEM supplemented as above, but containing different concentrations of test compound or no compound was then added to each well. Triplicate wells were used for each compound concentration. In parallel, uninfected cells were treated with compound to assess cytotoxicity. The plates were then incubated at 37° C. with 5% CO2. After 6 days 25 μl of a 1 mg/ml 2,3-bis[2-methoxy-4-nitro-5-sulphophenyl]-2H-tetrazolium-5-carboxanilide (XTT)/25 μM phenazine methosulphate (PMS) solution (XTT and PMS purchased from Sigma, Poole, Dorset, UK) was then added to each well and the plates incubated for 2 hours at 37° C. with 5% CO2. The absorbance was then determined at 450 nm. Data was plotted as O. D versus the log of the concentration of the compound and the 50% inhibitory concentration (IC50) computed.

The subject of the next data set is BVDV. The data set is described as follows: XTT cytopathicity assay, Bucast in combination with interferon alpha. In kind it is cell-based, bovine viral diarrhoea virus. The method, then:
as §3
The combination indexes (CI) were calculated using the formula of Suhnel (Antiviral Research, 13, 23-40). A CI value of less than 1 indicates a synergistic interaction and values of less than 0.8 are considered to indicate a statistically significant result.

Data set [5] can be described thus: Cytotoxicity in plaque reduction assay, microscopic examination of the cell monolayers. Type of data set: cell-based, bovine. To be noted: bovine. The method, then: as §1, §2
Data set [6] is described as follows: XTT cytopathicity assay, uninfected cells (cytotoxicity). In kind it is cell-based, bovine. The note with it: bovine. The method, then: as §3
Setting [7] is: MDBK cell monolayers, plaque reduction assay.
Setting [8] is: individual experiments, 150 pfu/well, 3 days, read-out: IC50.
Where [9] appears, read: individual experiments, MOI = 0.01, read-out: *IC50.
Where [10] appears, read: mean of experiments, read-out: Mean IC50 (μM) ± SD.

In the case of `CCCCN1C[C@H](O)[C@@H](O)[C@H](O)[C@H]1CO` [N-Butyl-DNJ, N-butyl-deoxynojirimycin], the half-maximal cytotoxic concentration (CC50) with MDBK cells [1] (setting [7]) is > 300 µM; with MDBK cells [4] it was > 1000 µM. Further, the IC50 in the data set with BVDV NADL [2] (setting [8]) is > 300 µM and 250 µM; in the data set with BVDV NADL [3] (MOI 0.0001, read-out: IC50), 55 µM; in the data set on BVDV NADL [3] (MOI 0.001, read-out: IC50), > 300 µM; in the data set with BVDV NADL [3] (MOI 0.01, read-out: IC50), > 300 µM; in the data set with BVDV NADL [3] (MOI 0.1, read-out: IC50), > 300 µM; in the data set with BVDV NADL [3] (setting [9]), > 1000 µM. Further, the “concentrations at which only partial inhibition was shown” value in the data set on BVDV NADL [2] was > 100 µM. Moreover, in the data set on BVDV NADL [3], the “protection of MDBK cells against virus-induced cell death (cytopathic effect of BVDV)” value (from here on “protection of MDBK cells”) is listed as “neither N-butyl-DNJ or N-nonyl-DNJ demonstrated any protection”. Further, in the data set with BVDV NADL [3] (very low MOI), the “fold less potent than Bucast” value turned out to be 10 fold. For the same compound, the “cytotoxicity to uninfected treated cells” value with MDBK cells [4] (FIG. 2) is “no cytotoxicity”.

Regarding `CCCC(=O)O[C@H]1CN2CC[C@H](O)[C@@H]2[C@@H](O)[C@@H]1O` [Bucast, 60-butanoylcastanospermine], the CC50 with MDBK cells [1] (setting [7]) was > 1000 µM; in the data set with MDBK cells [4] it was > 300 µM. In addition, in the data set on BVDV NADL [2], the “inhibition of formation of BVDV plaques” value was “inhibited the formation of BVDV plaques in a dose dependent manner”. The IC50 with BVDV NADL [2] (setting [8]) is 10 µM (2×) and 20 µM and 25 µM; with BVDV NADL [2] (setting [10]) it was 16.2 µM; in the data set on BVDV (fixed interferon α 0 IRU/well) it was 52 ± 16.4 µM; in the data set with BVDV (fixed interferon α 0.125 IRU/well), 13 µM; in the data set on BVDV (fixed interferon α 0.25 IRU/well), 4 µM; in the data set with BVDV (fixed interferon α 0.5 IRU/well), 3 µM. For the same compound, the half-maximal inhibitory concentration (IC50) in the data set with BVDV NADL [3] (MOI 0.0001, read-out: IC50) is 5 µM; in the data set with BVDV NADL [3] (MOI 0.001, read-out: IC50), 40 µM; with BVDV NADL [3] (MOI 0.01, read-out: IC50), 60 µM and 30 µM; in the data set with BVDV NADL [3] (MOI 0.1, read-out: IC50), 200 µM and 170 µM; in the data set on BVDV NADL [3] (setting [9]) it was 60 µM (2×) and 30 µM and 70 µM and 40 µM; with BVDV NADL [3] (mean, MOI = 0.01, read-out: mean IC50), 36 µM and 52 µM. Also, the “times more potent than castanospermine” value with BVDV NADL [2] (ratio of mean IC50) is “approximately 13 times”. For the same compound, in the data set with BVDV NADL [3], the “protection of MDBK cells” value is “protected MDBK cells against virus-induced cell death”. In the data set on MDBK cells [4] (FIG. 2), the “cytotoxicity to uninfected treated cells” value is listed as “no cytotoxicity”.

For `OC1CN2CC[C@H](O)[C@@H]2C(O)[C@@H]1O` (stereo partly drawn) [Castanospermine, [1S-(1α, 6β,7α,8β,8αβ)]-octahydro-1,6,7,8-indoli-zinetetrol], in data set [5], the CC50 at 3 days is > 1000 µM. In addition, the IC50 in the data set with BVDV NADL [2] (Bovine viral diarrhea virus isolates and strains, MDBK, in Bos taurus, 72 h, individual experiments, 150 pfu/well, 3 days, read-out: IC50) is 180 µM; in the data set on BVDV NADL [2] (Bovine viral diarrhea virus isolates and strains, MDBK, in Bos taurus, mean of experiments, read-out: Mean IC50 (μM) ± SD), 217 µM; in the data set with BVDV NADL [2] (setting [8]), 190 µM and 280 µM; in the data set with BVDV NADL [3] (Bovine viral diarrhea virus isolates and strains, in Bos taurus, individual experiments, MOI = 0.01, read-out: *IC50), 300 µM; in the data set on BVDV NADL [3] (Bovine viral diarrhea virus isolates and strains, in Bos taurus, read-out: mean IC50 (μM), mean, MOI = 0.01) it was 400 µM; in the data set with BVDV NADL [3] (setting [9]) it was 500 µM. For the same compound, the “inhibition of formation of BVDV plaques” value with BVDV NADL [2] is “inhibited the formation of BVDV plaques in a dose dependent manner”. Besides, the “protection of MDBK cells” value in the data set with BVDV NADL [3] is listed as “protected MDBK cells against virus-induced cell death”. Further, the “cytotoxicity to uninfected treated cells” value with MDBK cells [4] is reported as “no cytotoxicity”. Besides, the CC50 at 6 days in data set [6] was > 1000 µM.

Regarding `CCCCCCCCCN1C[C@H](O)[C@@H](O)[C@H](O)[C@H]1CO` [N-Nonyl-DNJ, N-nonyl-deoxynojirimycin], the “CC50 (μM)” value in the data set with MDBK cells [1] (setting [7]) was “Toxic @ 300”. For the same compound, the cytotoxicity to cells entry in the data set with MDBK cells [1] (at a concentration of 300 μM) is listed as “clearly cytotoxic”. The IC50 with BVDV NADL [2] (setting [8]) is 90 µM and 120 µM; in the data set with BVDV NADL [2] (setting [10]) it was 105 µM; in the data set with BVDV NADL [3] (setting [9]), 60 µM and > 100 µM. Also, the “concentrations at which only partial inhibition was shown” value in the data set on BVDV NADL [2] was > 300 µM. For the same compound, the “protection of MDBK cells” value in the data set with BVDV NADL [3] is “neither N-butyl-DNJ or N-nonyl-DNJ demonstrated any protection”. Further, the “cytotoxicity to uninfected treated cells” value in the data set on MDBK cells [4] (FIG. 2) was “clearly cytotoxic”. Besides, the CC50 with MDBK cells [4] was 120 µM.

Consider Interferon α, for which the “IC50 Interferon α (IRU/well)” value in the data set on BVDV (fixed Bucast 0 μM) is 1.3 IRU/well; in the data set with BVDV (fixed Bucast 5 μM), 0.22 IRU/well; with BVDV (fixed Bucast 10 μM) it was 0.12 IRU/well. In addition, the IC50 in the data set on BVDV NADL [3] (interferon alone) is listed as 1.3 interferon resistance units (IRU) per well.
